Results reported in ChEMBL document CHEMBL3872283, “Design, Synthesis, and Evaluation of Novel and Selective G-protein Coupled Receptor 120 (GPR120) Spirocyclic Agonists” (ACS Med Chem Lett, 2017).
Calls of active or inactive are those of the source. No cut-off for these calls is given here.

Assays:
[1] = target: Cytochrome P450 2D6 (Homo sapiens, UniProt P10635); assay: Inhibition of human CYP2D6; format: ADME
[2] = test system: Mus musculus; assay: Antidiabetic activity in diet-induced obese mouse assessed as reduction in homeostatic model assessment of insulin resistance at 30 mg/kg, po qd administered daily via gavage for 28 days measured on day 28 post dose; format: functional, organism-based
[3] = test system: Mus musculus; assay: Decrease in insulin levels in diet-induced obese mouse at 30 mg/kg, po qd administered daily via gavage for 14 days measured on day 14 post dose; format: functional, organism-based
[4] = test system: Mus musculus; assay: Antidiabetic activity in diet-induced obese mouse assessed as insulin sensitivity by measuring reduction in glucose at 30 mg/kg, po qd administered daily via gavage for 14 days measured on day 14 post dose; format: functional, organism-based
[5] = Half life in mouse at 2 mg/kg, iv or 10 mg/kg, po by LC/MS/MS analysis; format: ADME, organism-based; conditions: in vivo
[6] = Protein binding in rat plasma at 1 mg/kg, iv or 2 mg/kg, po by LC/MS/MS analysis; format: ADME, organism-based; conditions: read-out: PPB (converted)
[7] = target: T1, Peroxisome proliferator-activated receptor delta (Homo sapiens) (UniProt Q03181); assay: Binding affinity to human PPARdelta
T1 sequence (whole entry): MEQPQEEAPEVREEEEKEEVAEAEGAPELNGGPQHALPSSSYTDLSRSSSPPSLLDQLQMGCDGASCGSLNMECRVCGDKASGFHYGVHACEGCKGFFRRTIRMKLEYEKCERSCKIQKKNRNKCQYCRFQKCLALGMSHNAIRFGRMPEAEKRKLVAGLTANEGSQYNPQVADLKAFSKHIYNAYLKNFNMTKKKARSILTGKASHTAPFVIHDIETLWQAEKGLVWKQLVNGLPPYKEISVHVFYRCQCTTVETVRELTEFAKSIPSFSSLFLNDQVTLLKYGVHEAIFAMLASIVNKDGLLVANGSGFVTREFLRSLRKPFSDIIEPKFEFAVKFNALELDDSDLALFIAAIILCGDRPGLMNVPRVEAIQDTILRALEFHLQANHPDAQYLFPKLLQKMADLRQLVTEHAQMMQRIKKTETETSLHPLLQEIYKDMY

[8] = test system: Mus musculus; assay: Antidiabetic activity in diet-induced obese mouse assessed as insulin sensitivity by measuring reduction in glucose at 30 mg/kg, po qd administered daily via gavage for 28 days measured on day 28 post dose; format: functional, organism-based
[9] = target: Cytochrome P450 3A4 (Homo sapiens, UniProt P08684); assay: Inhibition of human CYP3A4; format: ADME
[10] = Volume of distribution at steady state in mouse at 2 mg/kg, iv or 10 mg/kg, po by LC/MS/MS analysis; format: ADME, organism-based; conditions: in vivo, read-out: Vdss
[11] = AUC in dog at 1 mg/kg, iv by LC/MS/MS analysis; format: ADME, organism-based, Canis lupus familiaris; conditions: in vivo
[12] = AUC in rat at 1 mg/kg, iv by LC/MS/MS analysis; format: ADME, organism-based; conditions: in vivo
[13] = Plasma clearance in mouse at 2 mg/kg, iv or 10 mg/kg, po by LC/MS/MS analysis; format: ADME, organism-based
[14] = Volume of distribution at steady state in rhesus monkey at 0.5 mg/kg, iv or 1 mg/kg, po by LC/MS/MS analysis; format: ADME, organism-based, Macaca mulatta; conditions: in vivo, read-out: Vdss
[15] = test system: Mus musculus; assay: Decrease in insulin levels in diet-induced obese mouse at 30 mg/kg, po qd administered daily via gavage for 28 days measured on day 28 post dose; format: functional, organism-based
[16] = Volume of distribution at steady state in rat at 1 mg/kg, iv or 2 mg/kg, po by LC/MS/MS analysis; format: ADME, organism-based; conditions: in vivo, read-out: Vdss
[17] = MRT in mouse at 2 mg/kg, iv or 10 mg/kg, po by LC/MS/MS analysis; format: ADME, organism-based; conditions: in vivo
[18] = AUC in mouse at 2 mg/kg, iv by LC/MS/MS analysis; format: ADME, organism-based; conditions: in vivo
[19] = target: T2, Free fatty acid receptor 4 (Mus musculus, UniProt Q7TMA4); assay: Agonist activity at mouse GPR120 expressed in U2OS cells assessed as induction of beta-arrestin2 recruitment after 90 mins by luminescence assay; format: cell-based
T2 sequence (Q7TMA4 whole entry): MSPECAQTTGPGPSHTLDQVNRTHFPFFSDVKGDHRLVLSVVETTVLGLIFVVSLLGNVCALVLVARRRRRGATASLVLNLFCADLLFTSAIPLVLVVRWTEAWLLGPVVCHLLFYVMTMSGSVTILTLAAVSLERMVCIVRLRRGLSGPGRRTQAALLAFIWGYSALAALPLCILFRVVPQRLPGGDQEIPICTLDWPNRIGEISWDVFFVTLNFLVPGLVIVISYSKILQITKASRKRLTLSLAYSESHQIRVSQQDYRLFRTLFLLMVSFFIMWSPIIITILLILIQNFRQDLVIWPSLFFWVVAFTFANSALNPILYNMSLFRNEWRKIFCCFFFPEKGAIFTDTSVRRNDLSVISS

[20] = Oral bioavailability in dog at 2 mg/kg by LC/MS/MS analysis; format: ADME, organism-based, Canis lupus familiaris; conditions: in vivo
[21] = test system: Mus musculus; assay: Antidiabetic activity in diet-induced obese mouse assessed as increase in glucose infusion rate during hyperinsulinemic euglycemic clamp procedure at 30 mg/kg, po qd administered daily via gavage measured after 28 days; format: functional, organism-based
[22] = Oral bioavailability in rhesus monkey at 1 mg/kg by LC/MS/MS analysis; format: ADME, organism-based, Macaca mulatta; conditions: in vivo
[23] = target: T3, Peroxisome proliferator-activated receptor alpha (Homo sapiens) (UniProt Q07869); assay: Binding affinity to human PPARalpha
T3 sequence (whole entry): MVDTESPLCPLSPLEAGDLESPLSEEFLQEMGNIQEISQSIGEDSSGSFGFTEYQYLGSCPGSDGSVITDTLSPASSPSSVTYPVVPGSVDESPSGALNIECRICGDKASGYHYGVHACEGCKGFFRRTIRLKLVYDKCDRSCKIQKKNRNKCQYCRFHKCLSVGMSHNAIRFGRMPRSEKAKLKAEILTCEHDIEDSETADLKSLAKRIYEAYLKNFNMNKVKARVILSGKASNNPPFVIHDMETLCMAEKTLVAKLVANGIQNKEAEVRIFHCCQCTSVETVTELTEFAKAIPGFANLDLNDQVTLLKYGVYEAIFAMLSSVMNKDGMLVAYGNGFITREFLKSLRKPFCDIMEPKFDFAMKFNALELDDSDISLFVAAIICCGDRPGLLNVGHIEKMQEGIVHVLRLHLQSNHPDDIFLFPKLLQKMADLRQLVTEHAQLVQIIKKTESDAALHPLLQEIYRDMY

[24] = Plasma clearance in rat at 1 mg/kg, iv or 2 mg/kg, po by LC/MS/MS analysis; format: ADME, organism-based

Cytochrome P450 3A4, sequence (P08684 whole entry): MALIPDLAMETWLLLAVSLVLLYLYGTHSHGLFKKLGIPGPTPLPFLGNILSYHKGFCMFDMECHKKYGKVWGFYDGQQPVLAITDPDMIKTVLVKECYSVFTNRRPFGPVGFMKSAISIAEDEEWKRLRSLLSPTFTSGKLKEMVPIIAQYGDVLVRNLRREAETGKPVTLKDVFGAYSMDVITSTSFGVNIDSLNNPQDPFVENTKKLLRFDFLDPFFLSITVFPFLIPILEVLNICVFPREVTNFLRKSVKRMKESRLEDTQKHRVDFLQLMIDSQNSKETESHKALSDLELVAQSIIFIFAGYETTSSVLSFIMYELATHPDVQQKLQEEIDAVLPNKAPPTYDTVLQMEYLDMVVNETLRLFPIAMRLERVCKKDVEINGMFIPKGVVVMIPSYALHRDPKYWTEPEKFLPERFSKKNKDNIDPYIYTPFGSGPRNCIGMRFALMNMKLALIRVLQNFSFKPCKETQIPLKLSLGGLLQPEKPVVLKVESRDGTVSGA
Cytochrome P450 2D6, sequence (P10635 whole entry): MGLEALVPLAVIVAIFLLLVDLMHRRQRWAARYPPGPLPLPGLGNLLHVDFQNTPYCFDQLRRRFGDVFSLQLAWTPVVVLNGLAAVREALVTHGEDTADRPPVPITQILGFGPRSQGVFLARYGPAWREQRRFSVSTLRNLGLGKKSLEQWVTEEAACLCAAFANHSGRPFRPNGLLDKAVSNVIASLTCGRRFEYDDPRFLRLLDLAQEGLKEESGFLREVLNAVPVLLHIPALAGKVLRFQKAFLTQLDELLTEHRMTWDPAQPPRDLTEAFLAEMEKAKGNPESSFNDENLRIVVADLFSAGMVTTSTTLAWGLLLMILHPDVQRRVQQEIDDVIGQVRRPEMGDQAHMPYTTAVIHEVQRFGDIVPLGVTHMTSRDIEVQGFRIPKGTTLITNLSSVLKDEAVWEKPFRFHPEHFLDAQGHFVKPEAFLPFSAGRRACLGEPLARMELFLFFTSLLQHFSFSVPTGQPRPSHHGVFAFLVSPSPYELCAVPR

INH [1]: > 48 µM
half-life [5]: 18.1 h
fraction unbound [6]: 0.0013
Activity [7]: > 10 µM
INH [9]: > 48 µM
Vd [10]: 8.9 L/kg
AUC [11]: 4.6 µM·h
AUC [12]: 17.5 µM·h
clearance [13]: 8.4 mL/min/kg
Vd [14]: 1.7 L/kg
Vd [16]: 0.4 L/kg
MRT [17]: 26.5 h
AUC [18]: 14.6 µM·h
EC50 [19]: 54 nM
bioavailability [20]: 100%
bioavailability [22]: 77%
Activity [23]: > 10 µM
clearance [24]: 2.3 mL/min/kg
SMILES: O=C(O)CC1CCC2(CC1)CCN(c1cc(OC(F)(F)F)ccc1Cl)CC2
Activity [2]: Active
Activity [3]: Active
Activity [4]: Active
Activity [8]: Active
Activity [15]: Active
Activity [21]: Active
